Patent US20040029777A1, “Pharmaceutical preparation for taste masking” (TAISHO PHARMACEUTICAL CO., LTD., priority 2002, published 2004)

Experiments:
[1] = In vitro dissolution test, USP apparatus 2 (paddle); assay type: physicochemical; details: distilled water (FIG. 16)
Procedure: Complexes that corresponded to 150 mg of ibuprofen were subjected to dissolution in a USP (United States Pharmacopoeia) dissolution apparatus 2 (Paddle-type) with several kinds of solutions (900 ml). This dissolution test was conducted at 37° C., and a paddle rotation speed of 50 rpm was maintained. A UV detector was used to measure the absorbance of dissolution liquids at regular intervals of up to 120 minutes.
The complexes containing 150 mg of ibuprofen were subjected to dissolution testing using a USP dissolution apparatus 2 (Paddle-type) with several kinds of solutions (900 ml). This dissolution test was conducted at 37° C., at a paddle rotation speed of 50 rpm. A UV detector was used to measure the absorbance of dissolution liquids at regular intervals up to 120 minutes.

[2] = Thermographic analysis (TGA), change in weight at set temperature; assay type: physicochemical
Procedure: Samples weighing approximately 10 mg were placed in a platinum pan and the change in weight at a set temperature (100° C., 150° C.) was measured using Perkin-Elmer Thermal Analysis Equipment.

dissolution profile saturation [1]: ~40%
TGA change in weight (sublimation) ([2]; 100° C.): showed sublimation
TGA change in weight (sublimation) ([2]; 150° C.): showed sublimation
Structure (SMILES): CC(C)Cc1ccc(C(C)C(=O)O)cc1 (stereo not drawn) [ibuprofen, Ibuprofen]
